Source: ChEMBL document CHEMBL5614385, “A peptide-salinomycin conjugate with a bystander effect reduces the stemness characteristics of ovarian cancer cells and enhances drug sensitivity” (Eur J Med Chem, 2024)
The source made the active and inactive calls. The rule behind the calls is not given here. Non-standard residues stand in square brackets, D forms with d. Residues, ends and D or L forms follow the SMILES beside them. *: point of attachment. X1 = CC[C@@H](C(=O)O)C1CC[C@H](C)C([C@@H](C)[C@H](O)[C@H](C)C(=O)[C@H](CC)C2O[C@]3(C=C[C@@H](NC(=O)CCS*)[C@]4(CC[C@@](C)(C5CC[C@](O)(CC)[C@H](C)O5)O4)O3)[C@H](C)C[C@@H]2C)O1; Sar = CNCC(=O)O

Tests used:
[1] = molecular target: Vascular endothelial growth factor receptor 2 (Homo sapiens) (UniProt P35968); assay: Inhibition of VEGFR2 phosphorylation in human SK-OV-3 cells at 5 uM incubated for 24 hrs by Western blot analysis; assay type: cell-based
[2] = system: SK-OV-3; assay: Inhibition of AKT phosphorylation in human SK-OV-3 cells at 5 uM incubated for 24 hrs by Western blot analysis; assay type: cell-based
[3] = system: A2780; assay: Antitumor activity against CD44 negative human A2780 cells co-cultured with CD44 positive human SK-OV-3 cells in DMEM medium at 4:6 ratio assessed as induction of cell death incubated for 72 hrs by enzymatic immunoassay; assay type: functional, cell-based; conditions: dose 2.5-20 µM
[4] = system: SK-OV-3; assay: Downregulation of CD133 expression in human SK-OV-3 tumor stem cells at 10 uM incubated for 36 hrs by flow cytometric analysis; assay type: functional, cell-based
[5] = system: SK-OV-3/CDDP; assay: Cytotoxicity against human SK-OV-3/CDDP cells assessed as inhibition of cell proliferation incubated for 72 hrs by CCK8 assay; assay type: functional, cell-based
[6] = system: A2780; assay: Antitumor activity against CD44 negative human A2780 cells assessed as reduction in cell viability incubated for 72 hrs by CCK8 assay; assay type: functional, cell-based; conditions: A2780, 72 h
[7] = system: A2780; assay: Antitumor activity against CD44 negative human A2780 cells co-cultured with CD44 positive human SK-OV-3 cells in DMEM medium at 5:5 ratio assessed as induction of cell death incubated for 72 hrs by enzymatic immunoassay; assay type: functional, cell-based; conditions: dose 2.5-20 µM
[8] = system: SK-OV-3; assay: Antitumor activity against human SK-OV-3 cells xenografted in nude mouse assessed as reduction in oct-4 level administered intravenously every 2 days for 21 days by hematoxylin based immunohistochemistry analysis; assay type: functional, cell-based; conditions: route iv, time 21.0 day
[9] = system: A2780; assay: Antitumor activity against CD44 negative human A2780 cells co-cultured with CD44 positive human SK-OV-3 cells in DMEM medium at varying ratio assessed as inhibition of cell growth at 20 uM incubated for 72 hrs by enzymatic immunoassay relative to control; assay type: functional
[10] = Solubility of compound in water; assay type: physicochemical; conditions: buffer
[11] = system: A2780; assay: Antitumor activity against CD44 negative human A2780 cells co-cultured with CD44 positive human SK-OV-3 cells in DMEM medium at 6:4 ratio assessed as induction of cell death incubated for 72 hrs by enzymatic immunoassay; assay type: functional, cell-based; conditions: dose 2.5-20 µM
[12] = system: A2780; assay: Antitumor activity against CD44 negative human A2780 cells expressing GFP co-cultured with CD44 positive human SK-OV-3 cells in DMEM medium at 4:6 ratio assessed as decrease in fluorescence intensity incubated for 72 hrs by enzymatic immunoassay; assay type: functional, cell-based; conditions: dose 2.5-20 µM
[13] = system: SK-OV-3/CDDP; assay: Antiproliferative activity against human SK-OV-3/CDDP cells; assay type: functional, cell-based
[14] = system: SK-OV-3; assay: Inhibition of tumor sphere formation in agarose-treated human SK-OV-3 cells assessed as fold decrease in number of formed spheres at 0.5 to 5 uM incubated for 9 days by imaging analysis; assay type: functional; conditions: dose 0.5-5 µM; time 9 day
[15] = system: SK-OV-3; assay: Cytotoxicity against CD44 positive human SK-OV-3 cells assessed as reduction in cell viability at 100 uM preincubated with 10 and 100 uM of 4S)-4-[[(2S)-1-[(2S)-1-[(2S)-2-[[(2S)-2-[[(2S)-1-[(2S)-2-acetamido-6-amino-hexanoyl]pyrrolidine-2-carbonyl]amino]-3-hydroxy-propanoyl]amino]-3-hydroxy-propanoyl]pyrrolidine-2-carbonyl]pyrrolidine-2-carbonyl]amino]-5-[[(1S)-1-[[2-[[2-[[2-[[2-[[2-[[2-[[2-[[2-[[2-[[2-[[(1S)-2-amino-1-methyl-2-oxo-ethyl]amino]-2-oxo-ethyl]-methyl-amino]-2-oxo-ethyl]-methyl-amino]-2-oxo-ethyl]-methyl-amino]-2-oxo-ethyl]-methyl-amino]-2-oxo-ethyl]-methyl-amino]-2-oxo-ethyl]-methyl-amino]-2-oxo-ethyl]-methyl-amino]-2-oxo-ethyl]-methyl-amino]-2-oxo-ethyl]-methyl-amino]-2-oxo-ethyl]-methyl-carbamoyl]-3-carboxy-propyl]amino]-5-oxo-pentanoic acid for 1 hrs followed by compound addition and measured after 24 hrs by CCK8 assay; assay type: functional, cell-based
[16] = system: A2780; assay: Antitumor activity against CD44 negative human A2780 cells expressing GFP co-cultured with CD44 positive human SK-OV-3 cells in DMEM medium at 6:4 ratio assessed as decrease in fluorescence intensity incubated for 72 hrs by enzymatic immunoassay; assay type: functional, cell-based; conditions: dose 2.5-20 µM
[17] = system: SK-OV-3; assay: Antitumor activity against human SK-OV-3 cells xenografted in nude mouse assessed as reduction in Nanog level administered intravenously every 2 days for 21 days by hematoxylin based immunohistochemistry analysis; assay type: functional, cell-based; conditions: route iv, time 21.0 day
[18] = system: A2780; assay: Antitumor activity against CD44 negative human A2780 cells expressing GFP co-cultured with CD44 positive human SK-OV-3 cells in DMEM medium at 5:5 ratio assessed as decrease in fluorescence intensity incubated for 72 hrs by enzymatic immunoassay; assay type: functional, cell-based; conditions: dose 2.5-20 µM
[19] = system: SK-OV-3; assay: Antitumor activity against human SK-OV-3 cells xenografted in nude mouse assessed as tumor growth inhibition at 35 microg/kg, iv administered every 2 days for 21 days; assay type: functional, organism-based; conditions: dose 35.0 µg/kg, time 21.0 day
[20] = system: SK-OV-3; assay: Effect on CD44 expression in CD44 positive human SK-OV-3 cells; assay type: functional, cell-based
[21] = system: SK-OV-3/CDDP; assay: Induction of ROS generation in human SK-OV-3/CDDP cells at 5 uM; assay type: functional, cell-based
[22] = system: SK-OV-3; assay: Inhibition of cell migration in human SK-OV-3 cells at 5 uM incubated for 24 hrs by microscope based wound healing assay; assay type: functional
[23] = system: SK-OV-3/CDDP; assay: Reduction in intracellular GSH level in human SK-OV-3 cells at 5 uM incubated for 36 hrs; assay type: functional, cell-based
[24] = system: SK-OV-3/CDDP; assay: Sensitization of cisplatin-induced antiproliferative activity against human SK-OV-3/CDDP cells assessed as reduction in cell viability at 1 uM incubated for 72 hrs by CCK8 assay; assay type: functional, cell-based
[25] = system: SK-OV-3; assay: Inhibition of cell invasion in human SK-OV-3 cells incubated for 24 hrs by crystal violet staining based transwell invasion assay; assay type: functional; conditions: dose 5.0 µM
[26] = system: A2780; assay: Binding affinity to CD44 negative human A2780 cells at 5 uM incubated for 1 hrs by flow cytometric analysis; assay type: functional, cell-based
[27] = system: SK-OV-3; assay: Antiproliferative activity against human SK-OV-3 cells; assay type: functional, cell-based
[28] = molecular target: CD44 antigen (Homo sapiens) (UniProt P16070); assay: Binding affinity to CD44 positive human SK-OV-3 cells at 5 uM incubated for 1 hrs by flow cytometric analysis; assay type: cell-based
[29] = system: SK-OV-3; assay: Antitumor activity against CD44 positive human SK-OV-3 cells assessed as reduction in cell viability incubated for 72 hrs by CCK8 assay; assay type: functional, cell-based; conditions: SK-OV-3, 72 h
[30] = system: MCF7; assay: Cytotoxicity against human MCF7 cells assessed as inhibition of cell growth incubated for 72 hrs by CCK8 assay; assay type: functional, cell-based; conditions: MCF7, 72 h
[31] = system: MIA PaCa-2; assay: Cytotoxicity against human MIA PaCa-2 cells assessed as inhibition of cell growth incubated for 72 hrs by CCK8 assay; assay type: functional, cell-based; conditions: MIA PaCa-2, 72 h
[32] = system: CAL-27; assay: Cytotoxicity against human CAL-27 cells assessed as inhibition of cell growth incubated for 72 hrs by CCK8 assay; assay type: functional, cell-based; conditions: CAL-27, 72 h
[33] = system: A-431; assay: Cytotoxicity against human A-431 cells assessed as inhibition of cell growth incubated for 72 hrs by CCK8 assay; assay type: functional, cell-based; conditions: A-431, 72 h
[34] = system: MDA-MB-231; assay: Cytotoxicity against human MDA-MB-231 cells assessed as inhibition of cell growth incubated for 72 hrs by CCK8 assay; assay type: functional, cell-based; conditions: MDA-MB-231, 72 h
[35] = system: MKN-45; assay: Cytotoxicity against human MKN-45 cells assessed as inhibition of cell growth incubated for 72 hrs by CCK8 assay; assay type: functional, cell-based; conditions: MKN-45, 72 h
[36] = system: SK-OV-3; assay: Inhibition of cell invasion in human SK-OV-3 cells at 5 uM incubated for 24 hrs by crystal violet staining based transwell invasion assay; assay type: functional
[37] = system: A549; assay: Cytotoxicity against human A549 cells assessed as inhibition of cell growth incubated for 72 hrs by CCK8 assay; assay type: functional, cell-based; conditions: A549, 72 h
[38] = system: HeLa; assay: Cytotoxicity against human HeLa cells assessed as inhibition of cell growth incubated for 72 hrs by CCK8 assay; assay type: functional, cell-based
[39] = system: SK-OV-3; assay: Inhibition of cell migration in human SK-OV-3 cells at 10 uM incubated for 24 hrs by microscope based wound healing assay; assay type: functional
[40] = system: DU-145; assay: Cytotoxicity against human DU-145 cells assessed as inhibition of cell growth incubated for 72 hrs by CCK8 assay; assay type: functional, cell-based; conditions: DU-145, 72 h
[41] = system: HCCLM3; assay: Cytotoxicity against human HCCLM3 cells assessed as inhibition of cell growth incubated for 72 hrs by CCK8 assay; assay type: functional, cell-based; conditions: HCCLM3, 72 h
[42] = system: ACHN; assay: Cytotoxicity against human ACHN cells assessed as inhibition of cell growth incubated for 72 hrs by CCK8 assay; assay type: functional, cell-based

Chain of Vascular endothelial growth factor receptor 2 (Homo sapiens) (P35968 whole entry): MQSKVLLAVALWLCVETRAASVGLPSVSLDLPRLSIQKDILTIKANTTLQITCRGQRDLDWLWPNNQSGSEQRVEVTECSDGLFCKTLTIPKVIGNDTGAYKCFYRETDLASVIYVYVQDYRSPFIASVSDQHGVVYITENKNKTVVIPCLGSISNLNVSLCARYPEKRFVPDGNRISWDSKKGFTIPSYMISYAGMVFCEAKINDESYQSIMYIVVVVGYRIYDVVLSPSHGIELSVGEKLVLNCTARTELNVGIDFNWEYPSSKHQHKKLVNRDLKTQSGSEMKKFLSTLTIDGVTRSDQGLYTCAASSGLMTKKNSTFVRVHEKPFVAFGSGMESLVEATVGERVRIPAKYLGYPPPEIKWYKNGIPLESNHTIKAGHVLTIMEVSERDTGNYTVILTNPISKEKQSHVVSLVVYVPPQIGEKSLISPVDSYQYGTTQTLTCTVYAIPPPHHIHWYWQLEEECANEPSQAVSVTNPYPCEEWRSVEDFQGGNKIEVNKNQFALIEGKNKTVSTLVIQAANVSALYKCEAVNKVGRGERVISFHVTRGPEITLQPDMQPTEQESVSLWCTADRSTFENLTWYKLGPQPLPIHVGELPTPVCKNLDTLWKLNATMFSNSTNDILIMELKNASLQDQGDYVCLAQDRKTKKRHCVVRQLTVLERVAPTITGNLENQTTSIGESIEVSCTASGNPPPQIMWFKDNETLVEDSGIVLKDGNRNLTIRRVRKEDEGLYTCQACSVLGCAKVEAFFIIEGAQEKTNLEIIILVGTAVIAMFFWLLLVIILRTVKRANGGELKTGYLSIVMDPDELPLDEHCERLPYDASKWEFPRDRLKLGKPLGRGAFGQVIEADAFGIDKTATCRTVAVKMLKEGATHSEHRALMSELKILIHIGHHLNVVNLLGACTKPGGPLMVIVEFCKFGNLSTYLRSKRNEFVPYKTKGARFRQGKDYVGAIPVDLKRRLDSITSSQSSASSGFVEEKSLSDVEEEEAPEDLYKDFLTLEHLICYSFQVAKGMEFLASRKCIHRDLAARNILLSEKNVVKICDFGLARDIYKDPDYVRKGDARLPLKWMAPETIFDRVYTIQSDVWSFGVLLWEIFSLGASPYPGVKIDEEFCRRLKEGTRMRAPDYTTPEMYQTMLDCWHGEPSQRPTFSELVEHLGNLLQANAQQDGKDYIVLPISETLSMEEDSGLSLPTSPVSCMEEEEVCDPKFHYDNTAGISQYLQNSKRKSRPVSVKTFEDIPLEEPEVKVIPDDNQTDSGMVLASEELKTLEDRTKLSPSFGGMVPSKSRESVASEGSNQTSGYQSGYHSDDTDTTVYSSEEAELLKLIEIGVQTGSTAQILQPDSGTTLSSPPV
Chain of CD44 antigen (Homo sapiens) (P16070 whole entry): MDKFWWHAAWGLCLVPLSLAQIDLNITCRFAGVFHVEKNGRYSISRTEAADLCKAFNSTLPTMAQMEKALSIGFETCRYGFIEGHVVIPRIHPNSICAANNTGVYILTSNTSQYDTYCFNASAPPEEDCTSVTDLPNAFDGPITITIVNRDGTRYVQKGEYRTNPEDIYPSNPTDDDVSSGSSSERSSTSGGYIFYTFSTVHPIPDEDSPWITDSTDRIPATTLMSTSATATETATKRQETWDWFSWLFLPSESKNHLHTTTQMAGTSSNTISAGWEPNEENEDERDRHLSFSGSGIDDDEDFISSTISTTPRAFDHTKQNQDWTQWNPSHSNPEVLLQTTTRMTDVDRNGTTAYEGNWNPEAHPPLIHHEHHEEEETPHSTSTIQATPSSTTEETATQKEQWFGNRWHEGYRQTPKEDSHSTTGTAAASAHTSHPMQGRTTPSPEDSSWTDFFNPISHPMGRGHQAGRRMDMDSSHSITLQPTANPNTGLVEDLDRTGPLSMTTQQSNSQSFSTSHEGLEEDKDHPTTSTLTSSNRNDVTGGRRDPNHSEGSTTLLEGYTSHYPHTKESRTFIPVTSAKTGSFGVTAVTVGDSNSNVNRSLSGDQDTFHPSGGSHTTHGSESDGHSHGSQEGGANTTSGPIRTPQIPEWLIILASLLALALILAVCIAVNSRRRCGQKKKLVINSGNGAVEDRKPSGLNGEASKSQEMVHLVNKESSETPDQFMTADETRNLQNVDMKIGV

Compound: CC(=O)N[C@@H](CCCCN)C(=O)N1CCC[C@H]1C(=O)N[C@@H](CO)C(=O)N[C@@H](CO)C(=O)N1CCC[C@H]1C(=O)N1CCC[C@H]1C(=O)N[C@@H](CCC(=O)O)C(=O)N[C@@H](CCC(=O)O)C(=O)N(C)CC(=O)N(C)CC(=O)N(C)CC(=O)N(C)CC(=O)N(C)CC(=O)N(C)CC(=O)N(C)CC(=O)N(C)CC(=O)N(C)CC(=O)N(C)CC(=O)N[C@@H](C)C(N)=O (Ac-KPSSPPEE[Sar][Sar][Sar][Sar][Sar][Sar][Sar][Sar][Sar][Sar]A-NH2)
- inhibition [1]: Active
- inhibition [2]: Active

Compound: CC[C@@H](C(=O)[O-])C1CC[C@H](C)C([C@@H](C)[C@H](O)[C@H](C)C(=O)[C@H](CC)C2O[C@]3(C=C[C@@H](NC(=O)CCSSC[C@H](NC(=O)CN(C)C(=O)CN(C)C(=O)CN(C)C(=O)CN(C)C(=O)CN(C)C(=O)CN(C)C(=O)CN(C)C(=O)CN(C)C(=O)CN(C)C(=O)CN(C)C(=O)[C@H](CCC(=O)O)NC(=O)[C@H](CCC(=O)O)NC(=O)[C@@H]4CCCN4C(=O)[C@@H]4CCCN4C(=O)[C@H](CO)NC(=O)[C@H](CO)NC(=O)[C@@H]4CCCN4C(=O)[C@H](CCCCN)NC(C)=O)C(N)=O)[C@]4(CC[C@@](C)(C5CC[C@](O)(CC)[C@H](C)O5)O4)O3)[C@H](C)C[C@@H]2C)O1.[Na+] (stereo partly drawn) (Ac-KPSSPPEE[Sar][Sar][Sar][Sar][Sar][Sar][Sar][Sar][Sar][Sar]C(X1)-NH2)
- Activity [3]: Dose-Dependent Effect
- Activity [4]: Active
- IC50 [5]: 6.09 µM
- IC50 [6]: 47.1 µM
- Activity [7]: Dose-Dependent Effect
- Activity [8]: Active
- inhibition at 20 µM [9]: > 80%
- solubility [10]: Soluble
- Activity [11]: Dose-Dependent Effect
- Activity [12]: Dose-Dependent Effect
- IC50 [13]: 18.7 µg/mL
- fold change (FC) [14]: 4.6
- Activity [15]: inactive
- Activity [16]: Dose-Dependent Effect
- Activity [17]: Active
- Activity [18]: Dose-Dependent Effect
- inhibition [1]: Active
- Activity [19]: Active
- Activity [20]: inactive
- Activity [21]: Active
- inhibition [22]: Active
- Activity [23]: Active
- Activity [24]: Active
- inhibition [25]: Dose-Dependent Effect
- Activity [26]: inactive
- IC50 [27]: 5.21 µg/mL
- Activity [28]: Active
- IC50 [29]: 5.45 µM
- inhibition [2]: Active

Compound: CC[C@@H](C(=O)[C@@H](C)[C@@H](O)[C@H](C)[C@@H]1O[C@@H]([C@@H](CC)C(=O)O)CC[C@@H]1C)[C@H]1O[C@]2(C=C[C@@H](O)[C@]3(CC[C@@](C)([C@H]4CC[C@](O)(CC)[C@H](C)O4)O3)O2)[C@H](C)C[C@@H]1C [SALINOMYCIN]
- IC50 [30]: 9.89 µM
- IC50 [31]: 5.03 µM
- IC50 [32]: 30.2 µM
- Activity [4]: Active
- IC50 [5]: 10.3 µM
- IC50 [33]: 5.27 µM
- IC50 [34]: 900 nM
- IC50 [6]: 0.16 µM
- IC50 [35]: 6.49 µM
- inhibition [36]: Active
- IC50 [37]: 25.1 µM
- inhibition [1]: Active
- IC50 [38]: 25 µM
- Activity [20]: inactive
- inhibition [22]: inactive
- Activity [24]: Active
- inhibition [39]: Active
- IC50 [40]: 47.1 µM
- IC50 [41]: 7.99 µM
- IC50 [29]: 12.4 µM
- IC50 [42]: 26 µM
- inhibition [2]: Active
